Data taken from patent publication EP0202903A2, “Control of ectoparasites” (priority 1985, dated 1986).

System: guinea pigs
Experiment: Guinea pig systemic test: death of the treated guinea pig before blood sampling
Format: in vivo
Method: Adult guinea pigs were used in this test system. The compounds to be tested were dissolved in aqueous polyvinyl pyrrolidone or in polyethylene glycol 200, and an appropriate amount of the solution was administered by intraperitoneal injection. Various doses of the compound were used, as named in the tables below.
Blood was drawn from the guinea pigs at different times, shown in the tables below, and the samples of blood were centrifuged. Dental wicks were saturated with the blood serum, and were then exposed in Petri dishes to adult stable flies or adult house flies; blow fly larvae were exposed in test tubes. Various species were used in various tests. After 24 hours, the insects were examined, and the number of dead were counted.

[1] = 10 mg./kg. intraperitoneal, sampling at 6 hours
[2] = 10 mg./kg. intraperitoneal, sampling at 24 hours
[3] = 25 mg./kg. intraperitoneal, sampling at 6 hours
[4] = 100 mg./kg. intraperitoneal, sampling at 24 hours
[5] = 25 mg./kg. intraperitoneal, sampling at 2 hours
[6] = 25 mg./kg. intraperitoneal, sampling at 48 hours

Measured: Dead (guinea pig died before its blood was sampled)

O=C(CC(=O)C(F)(F)C(F)(F)C(F)(F)F)c1ccc(Cl)s1 [Example 1, 1-(5-Chlorothien-2-yl)-3-perfluoropropyl-1,3-propanedione]
Dead: 5 mg./kg. intraperitoneal, sampling at 24 hours | [1] | [2] | 10 mg./kg. intraperitoneal, sampling at 48 hours | 25 mg./kg. intraperitoneal, sampling at 4 hours | [3] | 30 mg./kg. intraperitoneal, sampling at 6 hours | 40 mg./kg. intraperitoneal, sampling at 6 hours | 50 mg./kg. intraperitoneal, sampling at 4 hours | 50 mg./kg. intraperitoneal, sampling at 6 hours | 50 mg./kg. intraperitoneal, sampling at 24 hours | [4]

O=C(CC(=O)C(F)(F)C(F)(F)C(F)(F)F)c1cc(Cl)sc1Cl [Example 3, 1-(2,5-Dichlorothien-3-yl)-3-perfluoropropyl-1,3-propanedione]
Dead: [2] | [3] | 25 mg./kg. intraperitoneal, sampling at 24 hours

O=C(CC(=O)C(F)(F)C(F)(F)C(F)(F)F)c1ccc([N+](=O)[O-])cc1.[Na] [Example 4, 1-(4-Nitrophenyl)-3-perfluoropropyl-1,3-propanedione, sodium salt]
Dead: [4]

O=C(CC(=O)C1(F)C(F)(F)C(F)(F)C(F)(F)C(F)(F)C1(F)F)c1ccc(Cl)s1 [Example 5, 1-(5-Chlorothien-2-yl)-3-perfluorocyclo-hexyl-1,3-propanedione]
Dead: 25 mg./kg. intraperitoneal, sampling at 5 hours

O=C(CC(=O)C(F)(F)C(F)(F)C(F)(F)F)c1cc(Cl)c(Cl)s1 [Example 7, l-(4,5-Dichlorothien-2-yl)-3-perfluoropropyl-1,3-propanedione]
Dead: [2]

O=C(CC(=O)C(F)(F)C(F)(F)C(F)(F)F)c1ccc(Cl)cc1 [Example 8, 1-(4-Chlorophenyl)-3-perfluoropropyl-1,3-propanedione]
Dead: 10 mg./kg. intraperitoneal, sampling at 5 hours | [5] | [6] | 50 mg./kg. intraperitoneal, sampling at 2 hours | 100 mg./kg. intraperitoneal, sampling at 2 hours

O=C(CC(=O)C(F)(F)C(F)(F)C(F)(F)F)c1cccc(C(F)(F)F)c1.[Na] [Example 12, 1-Perfluoropropyl-3-(3-trifluoromethylphenyl)-1,3-propanedione, sodium salt]
Dead: [3] | [6]

O=C(CC(=O)C(F)(F)C(F)(F)C(F)(F)F)c1ccc(C(F)(F)F)cc1.[Na] [Example 13, 1-Perfluoropropyl-3-(4-trifluoromethylphenyl)-1,3-propanedione, sodium salt]
Dead: [5]

O=C(CC(=O)C(F)(F)C(F)(F)C(F)(F)F)c1ccc(C(F)(F)F)cc1 [Example 14, 1-Perfluoropropyl-3-(4-trifluoromethylphenyl)-1,3-propanedione]
Dead: 5 mg./kg. intraperitoneal, sampling at 5 hours | 5 mg./kg. intraperitoneal, sampling at 48 hours | [1] | [3]
